Patent publication US4199598A, “Method of treating noradrenaline dysfunction or for dopamine-β-hydroxylase inhibition” (Richter Gedeon Vegyeszeti Gyar Rt., priority 1976, dated 1980)

What was measured:
[1] = tested on: dopamine-β-hydroxylase; assay: Noradrenaline, dopamine, serotonine and 5-hydroxy-indolylacetic acid contents of cerebrum (dopamine-β-hydroxylase inhibiting effect); format: in vivo, male Wister rats; settings: Rattus norvegicus, ip
Method: (§1) The dopamine-β-hydroxylase inhibiting effects of the compounds according to the invention were examined by the following tests:
(§2) The tests were performed on male Wister rats weighing 150 to 200 g. The dopamine-β-hydroxylase inhibiting effects of the compounds were evaluated by determining the change of noradrenaline, dopamine and adrenaline levels of the cerebrum, heart, spleen and adrenal gland. The serotonine and 5-hydroxy-indolyl-acetic acid levels of the cerebrum were also determined. The measurements were performed as follows:
(§3) The animals were decapitated, the cerebrum, heart, spleen and adrenal gland were removed quickly, and the organs were frozen by placing them onto a metal sheet cooled with dry ice. The frozen organs were stored for a maximum of one night at -20° C.
(§4) Noradrenaline was determined according to the method of Shellenberger et al (Anal. Biochem., Vol. 39, p. 356, 1971), with the following modifications of the basic procedure: 0.5 ml of 0.1 molar Na-K-phosphate buffer, containing 9 g/l of EDTA-Na2, were added to 0.5 ml of the eluate, and the catecholamines (noradrenaline in the examination of heart and spleen and noradrenaline and dopamine in the examination of the cerebrum) were oxidized with 0.1 ml of a 0.1 N iodine solution in 5% potassium iodide. […] Thereafter the samples were placed for 5 minutes in a drying oven heated to 100° C., and then the samples were cooled with ice water. The fluorescence of noradrenaline was measured with an OPTON spectrophotometer at wavelengths of 390 nm (excitation) and 490 nm (emission).
Determination of the noradrenaline, dopamine, serotonine and 5-hydroxy-indolylacetic acid contents of cerebrum
The brains were homogenized in 10 parts by volume of 0.4 N perchloric acid. The homogenized mixture was stored at -20° C. overnight; thereafter it was thawed and centrifuged as described above. A sample of homogenized mixture corresponding to 0.5 g of brain was removed, the pH of the sample was adjusted to 8.0±0.1 with 0.1 molar tris-buffer of the above composition, and the sample was processed as described above for the determination of the noradrenaline content of heart and spleen, with the difference that 1.5 ml of 0.05 N perchloric acid were applied as eluting agent. 0.5 ml of the eluate were applied to determine the noradrenaline and dopamine content. The measurement was performed as described above, with the difference that samples of 0.5 ml were applied for the recording of the fluorescence of noradrenaline. The residue was placed for 50 minutes into a drying oven heated to 100° C.; thereafter the sample was cooled with ice water, and the fluorescence of dopamine was recorded at wavelengths of 325 nm (excitation) and 380 nm (emission).
In a further test series the serotonine and 5-hydroxy-indolylacetic acid contents were also determined, in addition to the determination of the noradrenaline and dopamine contents, from the same sample. In this instance the brains were homogenized in 10 ml of 75% ethanol, 0.2 ml of EDTA-Na2 and 5% of ascorbic acid were added to the homogenized mixtures, and the homogenized mixtures were maintained at -20° C. overnight. The mixtures were then centrifuged as described above, and 5.0 ml samples of the supernatant were removed. The samples were diluted with equal volumes of distilled water, and poured onto ion-exchange columns of 0.5×1.5 cm dimensions, filled with buffered Amberlite CG-30 (200 to 400 mesh). The columns were washed with 5 ml of distilled water followed with 1.0 ml of 0.2 N hydrochloric acid, and the first effluent and the aqueous wash were collected for the determination of 5-hydroxy-indolylacetic acid. Elution was continued with further 1.2 ml of 0.2 N hydrochloric acid in order to remove noradrenaline, dopamine and serotonine. Samples of 0.3 ml were used for the determinations. […]

[2] = tested on: dopamine-β-hydroxylase; assay: Noradrenaline content of heart (dopamine-β-hydroxylase inhibiting effect); format: in vivo, male Wister rats; settings: Rattus norvegicus, ip, read-out: Amine level, heart NA (noradrenaline)
Method: as §1, §2, §3
(§5) Determination of the noradrenaline content of heart and spleen
(§6) The organs were weighed in frozen state and then homogenized in 5.0 ml of 0.4 N perchloric acid containing 0.05% of EDTA-Na2 and 0.1% of Na2 S2 O5. The homogenized mixtures were centrifuged as described above for the treatment of adrenal gland, the supernatants were decanted, and the pH was adjusted to 8.0±0.1 with a 0.1 molar tris buffer containing 20 g/l of NaOH and 25 g/l of EDTA-Na2. 100 mg of prepared Al2 O3 (Anton et al: J. Pharm. Ther., Vol. 138, p. 360, 1962) were added to the samples, and the mixtures were shaken mechanically for 20 minutes. Thereafter the Al2 O3 were washed with 2.10 ml of distilled water, and the noradrenaline was eluted with 1.0 ml of 0.05 N perchloric acid. 0.5 ml samples of the eluate were applied for the determination of noradrenaline.
as §4
(§7) In the tests disulfiram, 2,2-dipyridyl, bis(1-methyl-4-homopiperazinyl-thiocarbonyl)-disulfide, sodium diethyldithiocarbamate and N-phenyl-N'-(2-thiazolyl)-thiourea were used as reference substances. The values indicated in Table 1 are percentages in relation to the amine levels of the controls measured in the same tests (± Standard Error). The statistical calculations were performed on a TPA/i type computer, using Student's test.

[3] = tested on: dopamine-β-hydroxylase; assay: Noradrenaline content of spleen (dopamine-β-hydroxylase inhibiting effect); format: in vivo, male Wister rats; settings: Rattus norvegicus, ip, read-out: Amine level, spleen NA (noradrenaline)
Method: as §1, §2, §3, §5, §6, §4, §7

[4] = tested on: dopamine-β-hydroxylase; assay: Adrenaline content of adrenal gland (dopamine-β-hydroxylase inhibiting effect); format: in vivo, male Wister rats; settings: Rattus norvegicus, ip, read-out: Amine level, adrenal gland AD (adrenaline)
Method: as §1, §2, §3
Determination of the adrenaline content of adrenal gland
The adrenal glands were freed from fat and homogenized in 3.0 ml of ice-cold 0.4 N perchloric acid. The homogenized mixtures were centrifuged for 10 minutes at 0° C. with a speed of 3200 r.p.m. on a Janetzky K-70 type centrifuge. 0.05 ml samples were taken from the supernatant, and the adrenaline level was determined directly by the method of Laverty et al (Anal. Biochem., Vol. 22, p. 269, 1968).
as §7

[5] = in vivo; settings: mouse, ip
[6] = tested on: dopamine-β-hydroxylase; settings: in words, prior art; cited from earlier work
[7] = rats, i.p., 4 hours, ± Standard Error, read-out: Amine level, cerebrum DA (dopamine)
[8] = rats, i.p., 4 hours, ± Standard Error, read-out: Amine level, cerebrum NA (noradrenaline)
[9] = rats, i.p., 4 hours, ± Standard Error, read-out: Amine level, cerebrum SE (serotonine)
[10] = rats, i.p., 200 mg/kg, 4 hours, ± Standard Error, read-out: Amine level, cerebrum DA (dopamine)
[11] = rats, i.p., 200 mg/kg, 4 hours, ± Standard Error, read-out: Amine level, cerebrum NA (noradrenaline)
[12] = rats, i.p., 200 mg/kg, 4 hours, ± Standard Error, read-out: Amine level, cerebrum SE (serotonine)
[13] = rats, i.p., 200 mg/kg, 4 hours, ± Standard Error, read-out: Level, cerebrum 5-HIAA (5-hydroxy-indolylacetic acid)
[14] = rats, i.p., 4 hours, ± Standard Error
[15] = rats, i.p., 200 mg/kg, 4 hours, ± Standard Error
[16] = 4 h, read-out: Amine level, cerebrum DA (dopamine)
[17] = 4 h, read-out: Amine level, cerebrum NA (noradrenaline)
[18] = 4 h, read-out: Amine level, cerebrum SE (serotonine)

## OCCNC1=C(C(=S)S)CCC1 [Compound M-4, 2-(N-hydroxyethyl)-amino-cyclopent-1-ene-dithiocarboxylic acid]
[1]; [7]
  response vs control in vivo at 100 mg/kg: 110 ± 3.5%
[1]; [8]
  response vs control in vivo at 100 mg/kg: 65.4 ± 4.9%
[1]; [9]
  response vs control in vivo at 100 mg/kg: 110 ± 3.3%
[1]; [10]
  response vs control in vivo at 200 mg/kg: 126 ± 2.5%
[1]; [11]
  response vs control in vivo at 200 mg/kg: 41.6 ± 2%
[1]; [12]
  response vs control in vivo at 200 mg/kg: 122 ± 10.5%
[1]; [13]
  response vs control in vivo at 200 mg/kg: 132 ± 12.6%
[2]; [14]
  response vs control in vivo at 100 mg/kg: 85 ± 9.7%
[2]; [15]
  response vs control in vivo at 200 mg/kg: 75.4 ± 8.3%
[3]; [14]
  response vs control in vivo at 100 mg/kg: 81.4 ± 9.4%
[3]; [15]
  response vs control in vivo at 200 mg/kg: 98.4 ± 17.1%
[4]; [14]
  response vs control in vivo at 100 mg/kg: 82.7 ± 4.2%
[4]; [15]
  response vs control in vivo at 200 mg/kg: 93.4 ± 7.5%
[5]
  LD50: ~800 mg/kg

## S=C(Nc1ccccc1)Nc1nccs1 [Compound U-14624, N-phenyl-N'-(2-thiazolyl)-thiourea, reference compound]
[1]; [16]
  response vs control in vivo at 200 mg/kg: 121%
[1]; [17]
  response vs control in vivo at 200 mg/kg: 31.6%
[1]; [18]
  response vs control in vivo at 200 mg/kg: 137%
[1]; 4 h, read-out: Level, cerebrum 5-HIAA (5-hydroxy-indolylacetic acid)
  response vs control in vivo at 200 mg/kg: 175%
[2]; 4 h
  response vs control in vivo at 200 mg/kg: 106%
[3]; 4 h
  response vs control in vivo at 200 mg/kg: 111%
[4]; 4 h
  response vs control in vivo at 200 mg/kg: 72%

## NOCc1ccccc1 [Benzyloxyamine]
[6]
  dopamine-β-hydroxylase inhibiting effects: exert dopamine-β-hydroxylase inhibiting effects
  duration of activity: exert their activities for a short period

## CCCCc1ccc(C(=O)O)nc1 [Fusaric acid, 5-butyl-picolinic acid]
[6]
  dopamine-β-hydroxylase inhibiting effects: strong dopamine-β-hydroxylase inhibiting effects

## NNCc1ccccc1 [benzylhydrazine]
[6]
  dopamine-β-hydroxylase inhibiting effects: exert dopamine-β-hydroxylase inhibiting effects
  duration of activity: exert their activities for a short period

## COCCNC1=C(C(=S)S)CCC1 [Compound M-1, 2-(N-methoxyethyl)-amino-cyclopent-1-ene-dithiocarboxylic acid]
[1]; [7]
  response vs control in vivo at 100 mg/kg: 107 ± 4.7%
[1]; [8]
  response vs control in vivo at 100 mg/kg: 63.4 ± 3.6%
[1]; [9]
  response vs control in vivo at 100 mg/kg: 116 ± 4.7%
[1]; [10]
  response vs control in vivo at 200 mg/kg: 122 ± 6.7%
[1]; [11]
  response vs control in vivo at 200 mg/kg: 64.2 ± 3.4%
[1]; [12]
  response vs control in vivo at 200 mg/kg: 107 ± 2.7%
[1]; [13]
  response vs control in vivo at 200 mg/kg: 141 ± 12.3%
[2]; [14]
  response vs control in vivo at 100 mg/kg: 106 ± 10.3%
[2]; [15]
  response vs control in vivo at 200 mg/kg: 110 ± 7.4%
[3]; [14]
  response vs control in vivo at 100 mg/kg: 77.1 ± 8.9%
[3]; [15]
  response vs control in vivo at 200 mg/kg: 110 ± 14.1%
[4]; [14]
  response vs control in vivo at 100 mg/kg: 106 ± 6.1%
[4]; [15]
  response vs control in vivo at 200 mg/kg: 91.5 ± 4.7%
[5]
  LD50: ~400 mg/kg

## CCN(CC)C(=S)SSC(=S)N(CC)CC [DS, bis(diethylthiocarbamoyl)-disulfide, reference compound]
[1]; [16]
  response vs control in vivo at 200 mg/kg: 111%
  response vs control in vivo at 400 mg/kg: 112%
[1]; [17]
  response vs control in vivo at 200 mg/kg: 22.5%
  response vs control in vivo at 400 mg/kg: 24.1%
[1]; [18]
  response vs control in vivo at 200 mg/kg: 122%
  response vs control in vivo at 400 mg/kg: 117%
[2]; 4 h
  response vs control in vivo at 200 mg/kg: 98%
  response vs control in vivo at 400 mg/kg: 102%
[4]; 4 h
  response vs control in vivo at 200 mg/kg: 52%
  response vs control in vivo at 400 mg/kg: 66%
[6]
  dopamine-β-hydroxylase inhibiting effects: strong dopamine-β-hydroxylase inhibiting effects
